From patent publication US12473291B2 (priority 2019, dated 2025)
Counter-ions that a name gives are not always drawn. Like-named read-outs stand apart in the source and are kept apart here.

Legend:
KM mice = test: animal or person; type: in vivo; details: for 2ED50 duration / 2ED50 recovery time / Quality of recovery: KM mice; for 2ED50 duration / 2ED50 recovery time: single tail vein injection at 2×ED50; for 2ED50 duration: time from disappearance to recovery of righting reflex; for 2ED50 recovery time: time from recovery of righting reflex to free crawling; for Quality of recovery: tail vein injection; for ED50: KM mice (male, 18-22 g), injection via the tail vein, disappearance of righting reflex; for duration and recovery time compared with remimazolam / effective dose compared with remimazolam: mice, tail vein, in words
SD rats = test: animal or person; type: in vivo; details: for ED50: SD rats (male, 220-300 g), injection via the tail vein, disappearance of righting reflex; for 2ED50 duration / 2ED50 recovery time / Quality of recovery: SD rats; for 2ED50 duration / 2ED50 recovery time: single tail vein injection at 2×ED50; for 2ED50 duration: time from disappearance to recovery of righting reflex; for 2ED50 recovery time: time from recovery of righting reflex to free crawling; for Quality of recovery: tail vein injection; for duration and recovery time compared with remimazolam / effective dose compared with remimazolam: rats, tail vein, in words
[1] = Rattus norvegicus, read-out: ED50

Row | SMILES | 2ED50 duration (KM mice) | 2ED50 recovery time (KM mice) | Quality of recovery (KM mice) | ED50 (KM mice; Mus musculus, read-out: ED50) | ED50 (SD rats; [1]) | 2ED50 duration (SD rats) | 2ED50 recovery time (SD rats) | Quality of recovery (SD rats) | duration and recovery time compared with remimazolam (KM mice) | effective dose compared with remimazolam (KM mice) | duration and recovery time compared with remimazolam (SD rats) | effective dose compared with remimazolam (SD rats) | ED50 (KM mice) | ED50 (SD rats)
1 | CCOC(=O)C1(OC(=O)CC[C@@H]2N=C(c3ccccn3)c3cc(F)c(C)cc3-n3c(C)cnc32)CC1 [Example 26] | 4.38 min | 2.08 min | +++ (“+++” means 3-5 min) | 23.7 mg/kg | 3.7 mg/kg | 3.48 min | 2.04 min | ++ (“++” means 1-3 min) |  |  |  |  |  | 
2 | COC(=O)C1(OC(=O)CC[C@@H]2N=C(c3ccccn3)c3cc(Br)ccc3-n3c(C)cnc32)CC1 [Example 58, Methyl 1-((3-((4S)-8-bromo-1-methyl-6-(pyridine-2-yl)-4H-benzo[f]imidazo [1,2-a][1,4]diaza-4-yl)propionyl)oxy) cyclopropane-1-carboxylate] | 3.18 min | 1.41 min | +++ (“+++” means 3-5 min) | 28 mg/kg | 5.6 mg/kg | 5.09 min | 3.01 min | +++ (“+++” means 3-5 min) |  |  |  |  |  | 
3 | COC(=O)C1(OC(=O)CC[C@@H]2N=C(c3ccccn3)c3cc(Cl)c(Br)cc3-n3c(C)cnc32)CC1 [Example 45] | 2.20 min | 1.53 min | ++++ (“++++” means 5-10 min) | 30 mg/kg | 7.1 mg/kg | 3.01 min | 2.00 min | ++ (“++” means 1-3 min) |  |  |  |  |  | 
4 | COc1cc(C)cc2c1-n1c(C)cnc1[C@H](CCC(=O)OC1(C(=O)OC(C)C)CC1)N=C2c1ccccn1 [Example 80, Isopropyl 1-((3-((4S)-10-methoxy-1,8-dimethyl-6-(pyridine-2-yl)-4H-benzo[f]imidazo[1,2-a][1,4]diaza-4-yl)propionyl)oxy) cyclopropane-1-carboxylate methyl sulfate] | 3.56 min | 2.01 min | +++ (“+++” means 3-5 min) | 30.9 mg/kg | 6.7 mg/kg | 2.36 min | 2.18 min | ++ (“++” means 1-3 min) |  |  |  |  |  | 
5 | CCOC(=O)OC(C)OC(=O)CC[C@@H]1N=C(c2ccccn2)c2cc(Br)c(Br)cc2-n2c(C)cnc21 (stereo partly shown) [Example 16] | 1.57 min | 1.23 min |  | 15.7 mg/kg | 3.4 mg/kg | 0.57 min | 0.53 min | + (“+” means <1 min) | significantly shorter | significantly lower | significantly shorter | significantly lower |  | 
6 | Cc1cnc2n1-c1ccc(Br)cc1C(c1ccccn1)=N[C@H]2CCC(=O)OC(C)OC(=O)OC(C)C (stereo partly shown) [Example 55] | 4.65 min | 1.29 min |  | 28.1 mg/kg | 5.2 mg/kg | 3.28 min | 2.51 min | + (“+” means <1 min) | significantly shorter | significantly lower | significantly shorter | significantly lower |  | 
7 | CCOC(=O)OCOC(=O)CC[C@@H]1N=C(c2ccccn2)c2ccc(Cl)cc2-n2c(C)cnc21 [Example 36] | 4.34 min | 1.49 min | +++ (“+++” means 3-5 min) | 27.8 mg/kg | 2.8 mg/kg | 3.14 min | 2.39 min | +++ (“+++” means 3-5 min) |  |  |  |  |  | 
8 | COC(=O)C1(OC(=O)CC[C@@H]2N=C(c3ccccn3)c3cc(Br)c(Br)cc3-n3c(C)cnc32)CC1 [Example 18] | 5.09 min | 2.49 min | +++ (“+++” means 3-5 min) | 30.1 mg/kg | 4.8 mg/kg | 4.49 min | 2.58 min | +++ (“+++” means 3-5 min) |  |  |  |  |  | 
9 | CCC(CC)OC(=O)OC(OC(=O)CC[C@@H]1N=C(c2ccccn2)c2cc(Cl)c(OC(F)(F)F)cc2-n2c(C)cnc21)C1CC(F)C(CC)C1 (stereo partly drawn) [Example 68, (3-Ethyl-4-fluorocyclopentyl) (((pentanyl-3-yloxy)carbonyl)oxy)methyl 3-((4S)-8-chloro-1-methyl-6-(pyridine-2-yl)-9-(trifluoromethoxy)-4H-benzo[f]imidazo[1,2-a][1,4]diazapin-4-yl) propionate L-aspartate] | 3.09 min |  |  | 28.9 mg/kg | 5.9 mg/kg | 4.28 min |  |  |  |  |  |  |  | 
10 | COC(=O)C1(OC(=O)CC[C@@H]2N=C(c3ccccn3)c3c(Cl)cc(C(F)(F)F)cc3-n3c(C)cnc32)CC1 [Example 39] | 5.09 min | 2.28 min | +++ (“+++” means 3-5 min) | 26.7 mg/kg | 6.7 mg/kg | 4.03 min | 2.48 min | ++ (“++” means 1-3 min) |  |  |  |  |  | 
11 | CCOC(=O)C1(OC(=O)CC[C@@H]2N=C(c3ccccn3)c3cc(Br)c(Br)cc3-n3c(C)cnc32)CC1 [Example 19] | 6.07 min | 2.09 min | ++++ (“++++” means 5-10 min) | 23.2 mg/kg | 5.6 mg/kg | 4.07 min | 2.12 min | +++ (“+++” means 3-5 min) |  |  |  |  |  | 
12 | CC(=O)O.COC(=O)C1(OC(=O)CC[C@@H]2N=C(c3ccccn3)c3cc(Cl)c(OC(F)(F)F)cc3-n3c(C)cnc32)CC1 [Example 42] | 0.58 min | 0.53 min | + (“+” means <1 mm) |  |  | 0.51 min | 0.31 min | + (“+” means <1 min) | significantly shorter | significantly lower | significantly shorter | significantly lower | 8.7 mg/kg | 4.7 mg/kg
13 | Cc1cnc2n1-c1cc(Br)c(Br)cc1C(c1ccccn1)=N[C@H]2CCC(=O)OCOC(=O)OC(C)(C)C [Example 11] | 5.31 min | 2.13 min | ++ (“++” means 1-3 min) | 22.4 mg/kg | 5.9 mg/kg | 5.03 min | 2.43 min | +++ (“+++” means 3-5 min) |  |  |  |  |  | 
14 | COC(=O)COC(=O)CC[C@@H]1N=C(c2ccccn2)c2cc(F)c(OC)cc2-n2c(C)cnc21 [Example 27] | 1.46 min | 1.20 min |  | 15.3 mg/kg | 6.3 mg/kg | 1.16 min | 1.05 min | + (“+” means <1 min) | significantly shorter | significantly lower | significantly shorter | significantly lower |  | 
